These results are taken from patent US11007206B2, “Cyclic boronic acid ester derivatives and therapeutic uses thereof” (Melinta Subsidiary Corp., priority 2012, dated 2021).

The structures appear in SMILES notation. Like-named read-outs stand apart in the source and are kept apart here.

Series [1] concerns multi-drug resistant strains of Enterobacteriaceae, including those producing serine carbapenemases. The experiment in a line: Checkerboard MIC of Biapenem alone or in combination with Compound I at fixed concentrations (Example 4). It counts as cell-based. As for the experimental part:
The evaluation of Compound I in combination with the carbapenem antibiotic Biapenem against multi-drug resistant strains of Enterobacteriaceae, including those producing serine carbapenemases were also conducted. Antibiotic potentiation activity of Compound I was studied in checkerboard MIC experiments and time-kill assays. The MICs of Biapenem were […]) against characterized and engineered isolates producing various beta-lactamases, as well as in geographically diverse panels of multi-drug resistant strains of Enterobacteriaceae (including strains that express the most relevant beta-lactamases).

Series [2] in a line: in vivo. Details: species or system Swiss-Webster mice. The conditions noted are these: mouse, ip. As for the experimental part: Example 2 provides a summary of two pharmacokinetic studies of Biapenem conducted in Swiss-webster mice. The pharmacokinetics of 100 mg/kg and 25 mg/kg of Biapenem via the intraperitoneal route was discussed below.
Biapenem power was purchased from Hisun Pharmaceuticals. 20 mg of Biapenem was dissolved in 0.1 M NaH2PO4 for a basic stock solution. For animal studies, this stock solution was further diluted in 0.9% saline to the appropriate concentration.
The specifications for animals used on this study were as follows: • Species: Mouse • Strain: CFW (Swiss) • Gender: Female • Source: Harlan Laboratories (Livermore, Calif.) • Number of Animals: 33 for each dose • Body Weight Range: 18-22 g at the start of the study
After acclimation, mice were administered a single intraperitoneal dose of biapenem at 25 or 100 mg/kg. […] Blood samples (one sample per animal) were collected by cardiac puncture in a heparin containing tube. The collected heparin tubes were centrifuged within 5 min of collection at 12000 g for 5 min to obtain plasma. The plasma samples were stored on −80° C. until analyzed.
Biapenem standard curves were prepared in 50% plasma-50% 1M MOPS buffer, pH=7.4 from 1 to 250 ug/mL. 20 uL of sample or standard was added into a 96-well deep well plate. Then 500 uL of 10% water-45% methanol-45% acetonitrile containing 2 ug/mL of meropenem was used as an internal standard. The plate was vortexed for 15 min. at 3,000 RPM. 50 uL of supernatant was removed and added 300 uL of water. 10 uL of samples were injected onto an HPLC-MS system for quantification.
The HPLC-MS conditions for the Biapenem plasma analysis are as follows: • Column: Supelco Discovery HS F5 or equivalent pentafluorophenyl column, 5 um, 50×2.1 mm. • Flow rate: 0.6 mL/min. • Mobile phase A: 0.1% formic acid in water. • Mobile phase B: 0.1% formic acid in acetonitrile. • Gradient: 5-70% B in 1.9 min. • Mass spectrometer: Positive ion mode with electrospray ionization. • MS/MS: Biapenem-Q1-m/e=350.8, Q3-m/e=110.1. • meropenem-Q1-m/e=384.1, Q3-m/e=141.1.
Serum concentrations were determined using HPLC. Serum concentrations were fit by using Non-compartmental model of WinNonlin Software (Pharsight. Version 5.3, Mountain View, Calif.).

Series [3] concerns carbapenem-resistant, KPC-producing K. pneumoniae. The series can be described thus: Mouse model of thigh infection, Biapenem +/- Compound I (Example 6). Conditions: IP 50 mpk Biapenem +/- 50 mpk Compound I every two hours for 24 hours. It counts as in vivo. As for the experimental part: Example 6 provides the in vivo efficacy study of the carbapenem Biapenem in combination with Compound I in mouse models of pulmonary and thigh infection due to the carbapenem-resistant, KPC-producing K. pneumoniae.
Four K. pneumoniae strains with Biapenem MICs ranging between 0.25-64 mg/L were used. Neutropenic mice were infected with ˜10^5 CFU/lung or ˜10^6 CFU/thigh. Intraperitoneal treatments with 50 mpk Biapenem+/−50 mpk Compound I were initiated 2 hours post-infection as a single dose or continued every two hours for 24 hours. Mice were sacrificed on designated time points and colony counts in tissue determined.

Series [4] in a line: Single-dose pharmacokinetics of Compound I, intravenous 30-minute infusion in Beagle dogs (Example 5). It counts as in vivo. The conditions noted are these: Dog; for AUC / Cmax / half-life: Beagle, in vivo. How it is done: (§1) Example 5 provides the single-dose pharmacokinetic studies of Compound I inpreclinical species, including intraperitoneal administration to Swiss-Webster mice and intravaneous administration to Sprague-Dawley rats, Beagle dogs, and Cynomologus monkeys.
(§2) Intravaneous doses of Compound I were administered as 30-minute infusions. The pharmacokinetics of Compound I were also studied with coadministration of the carbapenem, Biapenem. Compound I concentrations were determined using an LC-MS detection method.

Series [5] is described as follows: Single-dose pharmacokinetics of Compound I, intravenous 30-minute infusion in Cynomologus monkeys (Example 5). Type of series: in vivo. Conditions: Monkey; for half-life / AUC / Cmax: in vivo. How it is done:
as §1, §2

The mark [6] stands for this setting: female, CFW (Swiss-Webster), 25 mg/kg.
Where [7] appears, read: female, CFW (Swiss-Webster), 100 mg/kg.
Setting [8] is: female, CFW (Swiss-Webster), 100 mg/kg, Calc. Conc. (plasma concentration).

`C[C@@H](O)[C@H]1C(=O)N2C(C(=O)[O-])=C(SC3Cn4cnc[n+]4C3)[C@H](C)[C@H]12` (some centres unmarked) [Biapenem]: the MIC in series [1] (read-out: Biapenem MICs in the presence of Compound I, in the presence of 0.3 to 5 μg/ml of Compound I, characterized strains of Enterobacteriaceae with serine carbapenemases) is less than 0.25 µg/mL. Also, the MIC in series [1] (read-out: Biapenem MICs, Biapenem alone, KPC-producing strains including those expressing multiple classes of enzymes) was 8 to 64 µg/mL. Further, the MIC in series [1] (read-out: Biapenem MICs, Biapenem alone, KPC-producing strains used in the time-kill studies) was 16 to 32 µg/mL. Further, the MIC90 in series [1] (read-out: MIC90 of Biapenem with Compound I) was found to be 0.5 µg/mL. In series [2] (setting [6]), this molecule gave a Cl of 26.7 mL/min/kg, a Cmax of 31200 ng/mL and a half-life of 10.2 min. In series [2] (setting [7]), this molecule showed a Cl of 16 mL/min/kg, a Cmax of 286000 ng/mL and a half-life of 12.6 min. In addition, in series [2] (setting [8]), the concentration at 0.08 h is 1770 ng/mL, the concentration at 0.25 h was 68400 ng/mL, the concentration at 0.5 h was 120 ng/mL and the concentration at 0.75 h was 30500 ng/mL. For the same molecule, in series [2] (setting [8]), the concentration at 3 h is 12.3 ng/mL and the concentration at 4 h was 10.2 ng/mL. In series [2] (25 mg/kg), the AUC was 15.56 mg·h/kg and the “Calc. Conc. (plasma concentrations of Biapenem)” value is “No Peak”. Further, the AUC in series [2] (100 mg/kg) stood at 103.55 mg·h/kg. For the same molecule, the “Change in Log CFU/thigh ± SD @ 24 h” value in series [3] (strain ATCC 43816, neutropenic mice) is recorded as −1.09 ± 0.30 Log CFU/thigh. Further, the “Change in Log CFU/thigh ± SD @ 24 h” value in series [3] (strain KP1004, neutropenic mice) is reported as “+0.71 ± 0.10 Log CFU/thigh”. In series [3] (strain KP1061, neutropenic mice), the “Change in Log CFU/thigh ± SD @ 24 h” value was “+1.67 ± 0.09 Log CFU/thigh”. Besides, in series [3] (strain KP1074, neutropenic mice), the “Change in Log CFU/thigh ± SD @ 24 h” value is given as “+0.98 ± 0.46 Log CFU/thigh”.

As to `O=C(O)C[C@@H]1CC[C@H](NC(=O)Cc2cccs2)B(O)O1` [Compound I], the AUC in series [4] (2 mg/kg IV) worked out at 6130 ± 650 ng·h/mL; in series [4] (6 mg/kg IV) it was 18400 ± 2360 ng·h/mL; in series [4] (20 mg/kg IV) it was 73600 ± 5380 ng·h/mL; in series [5] (cynomolgus, 20 mg/kg IV) it was 41800 ± 2530 ng·h/mL; in series [5] (2 mg/kg IV), 3960 ± 510 ng·h/mL; in series [5] (6 mg/kg IV) it was 12200 ± 1890 ng·h/mL. In addition, the highest concentration (Cmax) in series [4] (2 mg/kg IV) was 6490 ± 310 ng/mL; in series [4] (6 mg/kg IV) it was 19600 ± 1420 ng/mL; in series [4] (20 mg/kg IV), 66800 ± 6160 ng/mL; in series [5] (cynomolgus, 20 mg/kg IV), 54900 ± 3320 ng/mL; in series [5] (2 mg/kg IV), 5350 ± 280 ng/mL; in series [5] (6 mg/kg IV), 17000 ± 1680 ng/mL. Also, the half-life was 39.6 ± 3.6 min in series [4] (2 mg/kg IV); 42.6 ± 5.4 min in series [4] (6 mg/kg IV); 91.8 ± 43.8 min in series [4] (20 mg/kg IV); 33 ± 7.2 min in series [5] (cynomolgus, 6 mg/kg IV); 113 ± 104 min in series [5] (cynomolgus, 20 mg/kg IV); 34.2 ± 1.8 min in series [5] (2 mg/kg IV). The “CL or CL/F” value in series [4] (2 mg/kg IV) stood at 5.5 ± 0.5 mL/min/kg; in series [4] (6 mg/kg IV) it was 5.5 ± 0.67 mL/min/kg; in series [4] (20 mg/kg IV), 4.5 ± 0.33 mL/min/kg; in series [5] (2 mg/kg IV), 8.5 ± 1.2 mL/min/kg; in series [5] (6 mg/kg IV) it was 8.33 ± 1.3 mL/min/kg; in series [5] (20 mg/kg IV) it was 8 ± 0.5 mL/min/kg.
